The results in this text go back to patent US11987586B1 (TAKEDA PHARMACEUTICAL COMPANY LIMITED, priority 2022, dated 2024).

In the assay the target is T1, human OX2 receptor (Homo sapiens, UniProt O43614).
T1 construct: expressed in transfected cells
T1 sequence (O43614 1-444): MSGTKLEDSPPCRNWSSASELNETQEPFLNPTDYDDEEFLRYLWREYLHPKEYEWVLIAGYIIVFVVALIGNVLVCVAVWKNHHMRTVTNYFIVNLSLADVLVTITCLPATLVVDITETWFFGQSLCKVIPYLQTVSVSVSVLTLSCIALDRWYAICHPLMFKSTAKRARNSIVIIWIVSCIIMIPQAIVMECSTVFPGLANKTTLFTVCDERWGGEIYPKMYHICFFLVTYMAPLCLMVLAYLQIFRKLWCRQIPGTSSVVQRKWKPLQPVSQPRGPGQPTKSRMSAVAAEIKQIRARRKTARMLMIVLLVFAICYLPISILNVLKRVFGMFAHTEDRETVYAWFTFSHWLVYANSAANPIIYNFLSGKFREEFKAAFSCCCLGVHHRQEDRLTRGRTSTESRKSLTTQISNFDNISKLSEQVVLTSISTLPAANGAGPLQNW
Nature of the assay: Measurement of orexin type 2 receptor agonist activity (calcium fluorescence, Fluo-4, FDSS). The assay is classed as cell-based. The following applies: 3 uM test compound; CHO cells expressing human OX2 receptor; DMSO = 0%, 10 nM orexin A (human) = 100%. The procedure, abridged: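 Agonist activity (%) was normalised to the response to 10 nM final human orexin A (100%) and to the DMSO vehicle (0%). The response was measured as the Fluo-4 calcium signal, read kinetically over 1 min 40 s after compound addition to Fluo-4/probenecid-loaded stable CHO-K1 clones expressing human OX2 (aa 1-444).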
For `CS(=O)(=O)N[C@@H]1Cn2c(cn(-c3noc4cc(Cl)c(F)c(-c5c(F)cc(F)cc5F)c34)c2=O)C1(F)F` [Example 106, N-{(6R)-2-[6-chloro-5-fluoro-4-(2,4,6-trifluorophenyl)-1,2-benzoxazol-3-yl]-7,7-difluoro-3-oxo-2,5,6,7-tetrahydro-3H-pyrrolo[1,2-c]imidazol-6-yl}methanesulfonamide], the “OX2R agonist activity (3 uM, %)” value is recorded as 103%.
For `CS(=O)(=O)N[C@@H]1CN2C(=O)N(c3noc4cc(Cl)c(F)c(-c5c(F)cccc5F)c34)C[C@@H]2C1(F)F` [Example 107, N-{(6R,7aR)-2-[6-chloro-4-(2,6-difluorophenyl)-5-fluoro-1,2-benzoxazol-3-yl]-7,7-difluoro-3-oxohexahydro-1H-pyrrolo[1,2-c]imidazol-6-yl}methanesulfonamide], the “OX2R agonist activity (3 uM, %)” value came to 101%.
On to `CS(=O)(=O)N[C@@H]1Cn2c(cn(-c3noc4cc(F)cc(-c5c(F)cc(F)cc5F)c34)c2=O)C1(F)F` [Example 108, N-{(6R)-7,7-difluoro-2-[6-fluoro-4-(2,4,6-trifluorophenyl)-1,2-benzoxazol-3-yl]-3-oxo-2,5,6,7-tetrahydro-3H-pyrrolo[1,2-c]imidazol-6-yl}methanesulfonamide], for which the “OX2R agonist activity (3 uM, %)” value is listed as 109%.
Under `COCc1cc(-c2c(F)cc(F)cc2F)c2c(-n3cc4n(c3=O)C[C@@H](NS(C)(=O)=O)C4(F)F)noc2c1` [Example 111, N-{(6R)-7,7-difluoro-2-[6-(methoxymethyl)-4-(2,4,6-trifluorophenyl)-1,2-benzoxazol-3-yl]-3-oxo-2,5,6,7-tetrahydro-3H-pyrrolo[1,2-c]imidazol-6-yl}methanesulfonamide] stands 90%; under `CCS(=O)(=O)N[C@@H]1Cn2c(cn(-c3noc4nc(C)cc(-c5c(F)cccc5F)c34)c2=O)C1(F)F` [Example 112, N-{(6R)-2-[4-(2,6-difluorophenyl)-6-methyl[1,2]oxazolo[5,4-b]pyridin-3-yl]-7,7-difluoro-3-oxo-2,5,6,7-tetrahydro-3H-pyrrolo[1,2-c]imidazol-6-yl}ethanesulfonamide], 99%.
To `CS(=O)(=O)N[C@@H]1Cn2c(cn(-c3noc4cc(OC(F)F)cc(-c5c(F)cc(F)cc5F)c34)c2=O)C1(F)F` [Example 113, N-{(6R)-2-[6-(difluoromethoxy)-4-(2,4,6-trifluorophenyl)-1,2-benzoxazol-3-yl]-7,7-difluoro-3-oxo-2,5,6,7-tetrahydro-3H-pyrrolo[1,2-c]imidazol-6-yl}methanesulfonamide] belongs 102%; to `CCS(=O)(=O)N[C@@H]1Cn2c(cn(-c3noc4cc(F)cc(-c5c(F)cc(F)cc5F)c34)c2=O)C1(F)F` [Example 116, N-{(6R)-7,7-difluoro-2-[6-fluoro-4-(2,4,6-trifluorophenyl)-1,2-benzoxazol-3-yl]-3-oxo-2,5,6,7-tetrahydro-3H-pyrrolo[1,2-c]imidazol-6-yl}ethanesulfonamide], 93%; to `Cc1cc(-c2c(F)cccc2F)c2c(-n3cc4n(c3=O)C[C@@H](NS(C)(=O)=O)C4(F)F)noc2n1` [Example 118, N-{(6R)-2-[4-(2,6-difluorophenyl)-6-methyl[1,2]oxazolo[5,4-b]pyridin-3-yl]-7,7-difluoro-3-oxo-2,5,6,7-tetrahydro-3H-pyrrolo[1,2-c]imidazol-6-yl}methanesulfonamide], 91%.
`Cc1cc2onc(N3C[C@H]4N(C[C@@H](NS(C)(=O)=O)C4(F)F)C3=O)c2c(-c2c(F)cc(F)cc2F)c1F` [Example 119, N-{(6R,7aR)-7,7-difluoro-2-[5-fluoro-6-methyl-4-(2,4,6-trifluorophenyl)-1,2-benzoxazol-3-yl]-3-oxohexahydro-1H-pyrrolo[1,2-c]imidazol-6-yl}methanesulfonamide]: the “OX2R agonist activity (3 uM, %)” value was determined as 105%.
To `CCS(=O)(=O)N[C@@H]1Cn2c(cn(-c3noc4cc(F)c(F)c(-c5c(F)cc(F)cc5F)c34)c2=O)C1(F)F` [Example 121, N-{(6R)-2-[5,6-difluoro-4-(2,4,6-trifluorophenyl)-1,2-benzoxazol-3-yl]-7,7-difluoro-3-oxo-2,5,6,7-tetrahydro-3H-pyrrolo[1,2-c]imidazol-6-yl}ethanesulfonamide] belongs 93%.
To `CCS(=O)(=O)N[C@@H]1CN2C(=O)N(c3noc4cc(F)cc(-c5c(F)cc(F)cc5F)c34)C[C@@H]2C1(F)F` [Example 124, N-{(6R,7aR)-7,7-Difluoro-2-[6-fluoro-4-(2,4,6-trifluorophenyl)-1,2-benzoxazol-3-yl]-3-oxohexahydro-1H-pyrrolo[1,2-c]imidazol-6-yl}ethanesulfonamide] belongs 101%; to `Cc1cc(-c2c(F)cccc2F)c2c(N3C[C@H]4N(C[C@@H](NS(C)(=O)=O)C4(F)F)C3=O)noc2c1` [Example 126, N-{(6R,7aR)-2-[4-(2,6-Difluorophenyl)-6-methyl-1,2-benzoxazol-3-yl]-7,7-difluoro-3-oxohexahydro-1H-pyrrolo[1,2-c]imidazol-6-yl}methanesulfonamide], 97%; to `Cc1cc(-c2c(F)cc(F)cc2F)c2c(-n3cc4n(c3=O)C[C@@H](NS(C)(=O)=O)C4(F)F)noc2c1` [Example 127, N-{(6R)-7,7-difluoro-2-[6-methyl-4-(2,4,6-trifluorophenyl)-1,2-benzoxazol-3-yl]-3-oxo-2,5,6,7-tetrahydro-3H-pyrrolo[1,2-c]imidazol-6-yl}methanesulfonamide], 102%.
Regarding `CS(=O)(=O)N[C@@H]1Cn2c(cn(-c3noc4cc(CO)cc(-c5c(F)cc(F)cc5F)c34)c2=O)C1(F)F` [Example 128, N-{(6R)-7,7-difluoro-2-[6-(hydroxymethyl)-4-(2,4,6-trifluorophenyl)-1,2-benzoxazol-3-yl]-3-oxo-2,5,6,7-tetrahydro-3H-pyrrolo[1,2-c]imidazol-6-yl}methanesulfonamide], the “OX2R agonist activity (3 uM, %)” value was 98%.
Turning to `CS(=O)(=O)N[C@@H]1Cn2c(cn(-c3noc4cc(C(F)(F)F)cc(-c5c(F)cc(F)cc5F)c34)c2=O)C1(F)F` [Example 130, N-{(6R)-7,7-difluoro-3-oxo-2-[6-(trifluoromethyl)-4-(2,4,6-trifluorophenyl)-1,2-benzoxazol-3-yl]-2,5,6,7-tetrahydro-3H-pyrrolo[1,2-c]imidazol-6-yl}methanesulfonamide], the “OX2R agonist activity (3 uM, %)” value is listed as 99%.
To `COCc1cc(-c2c(F)cccc2F)c2c(-n3cc4n(c3=O)C[C@@H](NS(C)(=O)=O)C4(F)F)noc2c1` [Example 132, N-{(6R)-2-[4-(2,6-difluorophenyl)-6-(methoxymethyl)-1,2-benzoxazol-3-yl]-7,7-difluoro-3-oxo-2,5,6,7-tetrahydro-3H-pyrrolo[1,2-c]imidazol-6-yl}methanesulfonamide] belongs 94%; to `CS(=O)(=O)N[C@@H]1Cn2c(cn(-c3noc4cc(F)c(F)c(-c5c(F)cc(F)cc5F)c34)c2=O)C1(F)F` [Example 135, N-{(6R)-2-[5,6-difluoro-4-(2,4,6-trifluorophenyl)-1,2-benzoxazol-3-yl]-7,7-difluoro-3-oxo-2,5,6,7-tetrahydro-3H-pyrrolo[1,2-c]imidazol-6-yl}methanesulfonamide], 100%.
To `CS(=O)(=O)N[C@@H]1Cn2c(cn(-c3noc4cc(C(F)F)cc(-c5c(F)cccc5F)c34)c2=O)C1(F)F` [Example 136, N-{(6R)-2-[6-(difluoromethyl)-4-(2,6-difluorophenyl)-1,2-benzoxazol-3-yl]-7,7-difluoro-3-oxo-2,5,6,7-tetrahydro-3H-pyrrolo[1,2-c]imidazol-6-yl}methanesulfonamide] belongs 99%; to `CNS(=O)(=O)N[C@@H]1Cn2c(cn(-c3noc4cc(F)cc(-c5c(F)cc(F)cc5F)c34)c2=O)C1(F)F` [Example 139, N-{(6R)-7,7-difluoro-2-[6-fluoro-4-(2,4,6-trifluorophenyl)-1,2-benzoxazol-3-yl]-3-oxo-2,5,6,7-tetrahydro-3H-pyrrolo[1,2-c]imidazol-6-yl}-N′-methylsulfuric diamide], 101%.
To `Cc1cc(-c2c(F)cc(F)cc2F)c2c(N3C[C@H]4N(C[C@@H](NS(C)(=O)=O)C4(F)F)C3=O)noc2c1` [Example 140, N-{(6R,7aR)-7,7-difluoro-2-[6-methyl-4-(2,4,6-trifluorophenyl)-1,2-benzoxazol-3-yl]-3-oxohexahydro-1H-pyrrolo[1,2-c]imidazol-6-yl}methanesulfonamide] belongs 100%; to `CS(=O)(=O)N[C@@H]1Cn2c(cn(-c3noc4cc(C(F)F)cc(-c5c(F)cc(F)cc5F)c34)c2=O)C1(F)F` [Example 141, N-{(6R)-2-[6-(difluoromethyl)-4-(2,4,6-trifluorophenyl)-1,2-benzoxazol-3-yl]-7,7-difluoro-3-oxo-2,5,6,7-tetrahydro-3H-pyrrolo[1,2-c]imidazol-6-yl}methanesulfonamide], 94%.
Turning to `CNS(=O)(=O)N[C@@H]1CN2C(=O)N(c3noc4cc(F)cc(-c5c(F)cc(F)cc5F)c34)C[C@@H]2C1(F)F` [Example 144, N-{(6R,7aR)-7,7-Difluoro-2-[6-fluoro-4-(2,4,6-trifluorophenyl)-1,2-benzoxazol-3-yl]-3-oxohexahydro-1H-pyrrolo[1,2-c]imidazol-6-yl}-N′-methylsulfuric diamide], the “OX2R agonist activity (3 uM, %)” value was found to be 102%.
